Several values for one entry are separate records, joined by “and”; a condition that tells them apart may be missing. Equal entries are not always repeated. Where two headings read alike, the source gives them in different places.

One data set deals with T1, PfDHODH (Plasmodium falciparum, UniProt Q08210).
T1 sequence (Q08210 24-569): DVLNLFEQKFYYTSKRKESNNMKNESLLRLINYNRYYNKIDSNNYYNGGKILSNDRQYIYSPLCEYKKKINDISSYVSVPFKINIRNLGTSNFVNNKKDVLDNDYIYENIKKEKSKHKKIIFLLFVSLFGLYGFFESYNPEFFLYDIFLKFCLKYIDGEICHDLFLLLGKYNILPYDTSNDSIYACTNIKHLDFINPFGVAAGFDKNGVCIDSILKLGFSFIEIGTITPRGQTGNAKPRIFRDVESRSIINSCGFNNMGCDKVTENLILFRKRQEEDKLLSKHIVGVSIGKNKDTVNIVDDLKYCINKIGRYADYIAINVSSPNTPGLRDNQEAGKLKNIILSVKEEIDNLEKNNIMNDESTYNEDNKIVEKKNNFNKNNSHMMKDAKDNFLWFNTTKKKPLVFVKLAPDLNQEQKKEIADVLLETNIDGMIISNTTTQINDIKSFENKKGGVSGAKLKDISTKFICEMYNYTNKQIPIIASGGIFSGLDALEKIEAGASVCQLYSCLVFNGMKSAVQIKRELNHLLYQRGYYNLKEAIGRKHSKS
As to the kind of experiment: biochemical. How it is done: (§1) Briefly, the assay solution contained 100 mM HEPES, pH 8.0, 150 mM NaCl, 10% glycerol, 0.1% Triton X-100, 20 micro molar COQD (coenzyme QD), 200 micro molar L-dihydroorotate, and 120 micro molar DCIP. Reactions are initiated by addition of enzyme to a final concentration in the range of about […] to about 50 nM while maintaining the temperature of a circulating water bath at 25° C.
(§2) Assay solutions were prepared as discussed above, except that DCIP is not present and the solution is depleted of oxygen by the inclusion of an oxidase/reductase system, such as, 0.1 mg/ml of glucose oxidase, 0.02 mg/ml catalase and 50 mM glucose. The data obtained is fitted to equation 1, to determine the IC50 values of the representative compounds.

For a further data set, the system named is P. falciparum. As to the kind of experiment: Inhibition of cell proliferation, 3H-hypoxanthine uptake in P. falciparum-infected erythrocytes. Type of data set: cell-based. From the text: [formula] II. In Vitro Evaluation of Compound Efficacy on the Human Malaria Parasite, P. falciparum.
For the next data set, the target named is hDHODH (Homo sapiens, UniProt Q02127). As to the kind of experiment: DHODH enzyme inhibition assay, hDHODH. It is filed as biochemical. The procedure: as §1, §2
Sequence of hDHODH (Q02127 whole entry): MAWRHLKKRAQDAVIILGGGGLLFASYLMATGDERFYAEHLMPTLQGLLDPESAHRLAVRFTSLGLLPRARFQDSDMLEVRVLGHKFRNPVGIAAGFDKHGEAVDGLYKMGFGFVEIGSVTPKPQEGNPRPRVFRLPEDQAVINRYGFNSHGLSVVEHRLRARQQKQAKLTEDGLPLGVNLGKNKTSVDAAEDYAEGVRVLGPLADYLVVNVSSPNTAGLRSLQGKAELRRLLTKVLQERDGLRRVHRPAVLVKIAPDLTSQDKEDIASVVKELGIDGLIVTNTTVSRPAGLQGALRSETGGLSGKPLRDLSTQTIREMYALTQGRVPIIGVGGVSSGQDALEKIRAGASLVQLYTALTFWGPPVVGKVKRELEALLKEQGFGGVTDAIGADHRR
Another data set addresses PbDHODH (Plasmodium berghei, UniProt A0A509AEH5). The data set can be described thus: DHODH enzyme inhibition assay, PbDHODH. It is filed as biochemical, P. berghei. The procedure:
as §1, §2

Data set [1] in a line: Pharmacokinetic analysis after single oral dose in mice. It is filed as in vivo. Conditions: for peak plasma concentration: FIG. 1A. The procedure:
Pharmacokinetics of the inventive compounds was studied individually in non-fasted male Swiss outbred mice weighing 23-33 g. Mice had access to food and water ad libitum throughout the pre- and post-dose sampling period. Compounds were administered orally by gavage (0.1 mL dose volume per mouse) in a suspension of aqueous vehicle (0.5% w/v sodium caboxymethylcellulose, 0.5% v/v benzyl alcohol and 0.4% v/v Tween 80). A single blood sample was collected from each mouse via cardiac puncture at each indicated time point and transferred to heparinised tubes. Blood samples were centrifuged immediately, supernatant plasma was removed and stored at −20° C. until analysis (within 1-2 weeks). Plasma samples were assayed by LC-MS following protein precipitation with acetonitrile and the concentration of drug in plasma was determined. Pharmacokinetic parameters were calculated on the basis of plasma concentration-time profiles that used the mean plasma concentration at each sample time.

For the next data set, the system named is P. berghei. As to the kind of experiment: Standard P. berghei mouse model of infection. Type of data set: in vivo. Conditions: mice, oral. The procedure: (A) The standard P. berghei mouse model for infection is utilized to evaluate the efficacy of candidate compounds, according to the invention, against parasites in vivo. See review of Fidock, et al. (2004) Nature Rev. Drug Discovery 3, 509-20. Compounds are dosed either orally or IP, with the exact regimens (e.g. frequency of dosing, drug concentrations at dosing) determined based on the pharmocokinetic profiles of the individual analogs. […] Inhibition of parasite growth is determined microscopically by staining a thin smear of blood obtained from the test animal using a Wright-Giemsa stain.

[2] abbreviates: Table 5, read-out: PfDHODH IC50.
The mark [3] stands for this setting: Plasmodium falciparum, 3D7, Erythrocyte, Table 5, 3D7 cells, read-out: EC50 P. falciparum 3D7 cells.
Where [4] appears, read: Table 1, read-out: IC50 PfDHODH.
Where [5] appears, read: Plasmodium falciparum, Erythrocyte, Table 1, read-out: EC50 P. falciparum.
Where [6] appears, read: Plasmodium falciparum, 3D7, Erythrocyte, Table 3, 3D7, single determinations, read-out: P. falciparum 3D7 EC50 (converted).
Setting [7] is: Table 3, average of the determinations, read-out: PbDHODH IC50 Ave (converted).
[8] abbreviates: for a 2.5-fold increase in dose, 20 to 50 mg/kg.
[9] abbreviates: Table 4, IC50 class, read-out: PfDHODH.
Where [10] appears, read: Table 4, IC50 class, read-out: hDHODH.
The mark [11] stands for this setting: Table 4, IC50 class, read-out: PbDHODH.

Sequence of PbDHODH (A0A509AEH5 entry or part of it): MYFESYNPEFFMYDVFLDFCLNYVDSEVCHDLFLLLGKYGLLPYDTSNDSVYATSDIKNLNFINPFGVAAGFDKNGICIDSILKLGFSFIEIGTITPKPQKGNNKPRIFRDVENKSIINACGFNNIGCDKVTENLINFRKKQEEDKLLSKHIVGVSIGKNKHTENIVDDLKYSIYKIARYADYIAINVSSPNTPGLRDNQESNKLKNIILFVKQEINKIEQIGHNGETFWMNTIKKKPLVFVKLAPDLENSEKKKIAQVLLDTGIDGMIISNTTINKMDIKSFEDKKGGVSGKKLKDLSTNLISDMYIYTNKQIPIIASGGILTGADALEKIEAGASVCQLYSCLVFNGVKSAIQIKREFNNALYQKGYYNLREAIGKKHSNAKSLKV

What is called EC50 is the concentration at which the effect is half-maximal. For the molecule `Cc1nc2nc(C)c(Cl)c(Nc3ccc(C(F)(F)F)cc3)n2n1` [6-chloro-2,5-dimethyl-N-(4-(trifluoromethyl)phenyl)-[1,2,4]triazolo[1,5-a]pyrimidin-7-amine], the IC50 on PfDHODH (setting [2]) is 0.62 ± 0.08 µM. Besides, in the data set on P. falciparum (setting [3]), the EC50 came to 7.1 ± 0.04 µM.
For `Cc1cc(Nc2ccc3cc4ccccc4cc3c2)n2nc(C)nc2n1`, the IC50 on PfDHODH (setting [4]) is 0.1 µM; on hDHODH (Table 1, read-out: IC50 hDHODH) it was over 200 µM. In the data set on P. falciparum (setting [5]), the EC50 was 0.23 ± 0.0014 µM.
Take `Cc1cc(Nc2ccc3ccccc3c2)n2nccc2n1`: the IC50 at PfDHODH (Table 3, single determinations, read-out: PfDHODH IC50) was 0.4 ± 0.09 µM; on PbDHODH (setting [7]), 3.3 µM. The EC50 was 1 µM with P. falciparum (Plasmodium falciparum, 3D7, Erythrocyte, Table 3, 3D7, average of the determinations, read-out: P. falciparum 3D7 EC50 Ave); 0.99 ± 0.006 µM in the data set on P. falciparum (setting [6]); 1.1 µM in the data set with P. falciparum (Table 3, 3D7, single determinations, read-out: P. falciparum 3D7 EC50 (converted)).
On to `Cc1nc2ncnn2c(Nc2ccc(C(F)(F)F)cc2)c1C` [5,6-dimethyl-N-(4-(trifluoromethyl)phenyl)-[1,2,4]triazolo[1,5-a]pyrimidin-7-amine], for which the IC50 on PfDHODH (setting [2]) stood at 1.2 ± 0.33 µM. In addition, in the data set with P. falciparum (setting [3]), the EC50 was 2.7 ± 0.009 µM.
What is called half-life is the time needed for the level to fall by half in the phase considered. What is called Cmax is the maximum level reached in the sampled fluid or tissue. In data set [1] (setting [8]), `Cc1cc(Nc2ccc(C(F)(F)F)cc2)n2ncnc2n1` [drawing 22] returned an AUC0-last increase of 4.4 fold and a Cmax increase of 3.5 fold. In addition, the half-life in data set [1] (male, Swiss outbred, mouse, plasma, mice, oral, 50 mg/kg, read-out: apparent half-life) came to 2.95 h. For the same molecule, in data set [1] (mice, oral, 20 mg/kg), the AUC0-last came out at 2690 µM·min, the Cmax was 7.9 ± 2.5 µM, the apparent half-life worked out at 1.8 h and the peak plasma concentration was 11 micro molar. In data set [1] (mice, oral, 20 mg/kg and 50 mg/kg), the “adverse reactions following oral administration” value was “No adverse reactions were observed”. In data set [1] (mice, oral, 50 mg/kg), the AUC0-last was found to be 11757 µM·min, the Cmax came out at 27.6 ± 5 µM, the “time with plasma concentration above 1 μM” value was 16 h and the peak plasma concentration is on record as 31 micro molar. Also, in the data set on P. falciparum (Plasmodium falciparum, 3D7, Erythrocyte, Table 2, 3D7, read-out: P. falciparum 3D7 EC50 (converted)), the EC50 was 0.35 ± 0.003 µM. In the data set with P. berghei (50 mg/kg, blood smear Wright-Giemsa stain, FIG. 1B), the parasite growth result is “suppresses parasite growth”. Besides, the “parasite growth, twice a day rather than a single dose” value with P. berghei (twice a day versus single dose) is on record as “Greater suppression of parasite growth”.
For `Cc1cc(Nc2ccc(Br)c(C)c2)n2nc(C)nc2n1`, on PfDHODH (setting [2]), the IC50 was determined as 0.0706 µM. The concentration giving a half-maximal response (EC50) in the data set on P. falciparum (setting [3]) was 0.08 to 0.12 µM.
As for `Cc1cc(Nc2ccc(C(F)(F)F)cc2)n2nc(C)nc2n1` [2,5-dimethyl-N-(4-(trifluoromethyl)phenyl)-[1,2,4]triazolo[1,5-a]pyrimidin-7-amine], the IC50 on PfDHODH (setting [2]) amounted to 0.65 ± 0.31 µM. Further, in the data set on P. falciparum (setting [3]), the EC50 worked out at 0.93 ± 0.018 µM.
The corresponding values for `Cc1nc2nc(C)c(C)c(Nc3ccc(C(F)(F)F)cc3)n2n1` [2,5,6-trimethyl-N-(4-(trifluoromethyl)phenyl)-[1,2,4]triazolo[1,5-a]pyrimidin-7-amine] are 3 ± 0.46 µM and 3.6 ± 0.004 µM.
In general, melting point refers to the temperature, or range, at which the solid turns liquid. The molecule `Cc1cc(Nc2ccc(OC(F)F)cc2)n2ncnc2n1` [Compound 20, (4-Difluoromethoxy-phenyl)-(5-methyl-[1,2,4]triazolo[1,5-a]pyrimidin-7-yl)-amine] came in with a melting point of 200 °C.
With `Cc1cc(Nc2ccc3ccccc3c2)n2ccnc2n1`, the IC50 against PfDHODH (PfDHODH IC50, Table 3, single determinations) was 0.16 µM and 0.14 µM; on PfDHODH (Table 3, average of the determinations, read-out: PfDHODH IC50 Ave (converted)), 0.15 µM; on PbDHODH (setting [7]), 2.8 µM. Besides, the EC50 with P. falciparum (setting [6]) is 0.2 ± 0.001 µM.
With `Cc1nc2ncnn2c(Nc2ccc(C(F)(F)F)cc2)c1Cl` [6-chloro-5-methyl-N-(4-(trifluoromethyl)phenyl)-[1,2,4]triazolo[1,5-a]pyrimidin-7-amine], the IC50 at PfDHODH (setting [2]) was determined as 0.34 ± 0.06 µM. For the same molecule, the EC50 in the data set with P. falciparum (setting [3]) was found to be 2.7 ± 0.03 µM.
As for `CC1=NC2=NC=NC2C(Nc2ccc3ccccc3c2)=N1` (stereo not shown) [2-methyl-N-(naphthalen-2-yl)-9H-purin-6-amine], the IC50 against PfDHODH (IC50 PfDHODH, Table 1) was 0.44 ± 0.2 µM; at hDHODH (Table 1, read-out: IC50 hDHODH) it was over 200 µM. The EC50 in the data set with P. falciparum (Plasmodium falciparum, Erythrocyte, read-out: EC50 P. falciparum) stood at 1.6 µM.
Molecule `Cc1cc(Nc2ccc(F)c(C)c2)n2ncnc2n1` returned a melting point of 231 °C.
On to `Cc1cc(Nc2ccc(C)c(C(F)(F)F)c2)n2ncnc2n1`, for which the IC50 was under 2 µM at PfDHODH (setting [9]), over 10 µM at hDHODH (setting [10]) and 2 to 10 µM on PbDHODH (setting [11]).
Consider `Cc1cc(Nc2ccc3ccccc3c2)n2nc(C)nc2n1`, for which the IC50 was 0.12 ± 0.02 µM on PfDHODH (setting [4]) and over 200 µM on hDHODH (Table 1, read-out: IC50 hDHODH). In the data set with P. falciparum (setting [5]), the EC50 is under 0.15 µM.
`CCc1ccc(Nc2cc(C)nc3ncnn23)cc1`: the IC50 at PfDHODH (setting [9]) is under 2 µM; on hDHODH (setting [10]), over 10 µM; against PbDHODH (PbDHODH, Table 4, IC50 class) it was 2 to 10 µM.
On to `Cc1cc(Nc2cc(C(F)(F)F)cc(C(F)(F)F)c2)n2ncnc2n1`, for which the IC50 at PfDHODH (setting [9]), at hDHODH (setting [10]) and on PbDHODH (setting [11]) was over 10 µM each time.
Consider `COc1ccc(Nc2cc(C)nc3ncnn23)cc1`, for which the IC50 is under 2 µM on PfDHODH (setting [9]), over 10 µM on hDHODH (setting [10]) and under 2 µM on PbDHODH (setting [11]).
Take `Cc1cc(Nc2cc(F)cc(F)c2)n2ncnc2n1`: the IC50 on PfDHODH (setting [9]) is 2 to 10 µM; at hDHODH (setting [10]) it was over 10 µM; at PbDHODH (setting [11]) it was over 10 µM.
With `Cc1cc(Nc2ccc3c(c2)OCO3)n2ncnc2n1`, the IC50 on PfDHODH (setting [9]) was under 2 µM; on hDHODH (setting [10]), over 10 µM; against PbDHODH (PbDHODH, Table 4, IC50 class), over 10 µM.
Turning to `Cc1cc(Nc2cccc(F)c2)n2ncnc2n1`, the values for the IC50 on PfDHODH (setting [9]), at hDHODH (setting [10]) and on PbDHODH (setting [11]) were 2 to 10 µM, over 10 µM and over 10 µM, respectively.
With `Cc1ccc(Nc2cc(C)nc3ncnn23)c(F)c1`, the IC50 on PfDHODH (setting [9]), at hDHODH (setting [10]) and on PbDHODH (setting [11]) was over 10 µM in each case.
On to `Cc1cc(Nc2ccc(C(F)(F)F)cc2)n2ncnc2n1` [drawing 93], for which the EC50 in the data set on P. falciparum (setting [3]) stood at 0.33 ± 0.02 µM.
In the case of `Cc1cc(Nc2ccc(C)c(C)c2)n2ncnc2n1`, the figures for the IC50 on PfDHODH (setting [9]), at hDHODH (setting [10]) and on PbDHODH (setting [11]) were under 2 µM, over 10 µM and 2 to 10 µM, respectively.
`Cc1cc(Nc2cccc(Cl)c2)n2ncnc2n1` [drawing 23] came in with a melting point of 227 °C.
Take `Cc1cc(Nc2cccc(C(F)(F)F)c2)n2ncnc2n1`: the IC50 at PfDHODH (setting [9]), on hDHODH (setting [10]) and on PbDHODH (setting [11]) was over 10 µM each time.

For the origin of these results see patent US9216983B2, “Dihydroorotate dehydrogenase inhibitors with selective anti-malarial activity” (BOARD OF REGENTS, UNIVERSITY OF TEXAS SYSTEM, priority 2007, dated 2015).
